# From patent US7763627B2, “Tie-2 modulators and methods of use” (Exelixis, Inc., priority 2003, dated 2010)
# Target: Tie-2 (Homo sapiens, UniProt Q02763)
# Assay: Tie-2 tyrosine kinase inhibition (ATP consumption by luciferase/luciferin chemiluminescence or 33P-ATP incorporation into pEY substrate)
# Assay type: biochemical
# Conditions: human enzyme Tie-2; inhibition given as class symbol
# Protocol: Tyrosine kinase activity is determined by 1) measurement of kinase-dependent ATP consumption by in the presence of a generic substrate such as polyglutamine, tyrosin (pEY), by luciferase/luciferin-mediated chemiluminescence or; 2) incorporation of radioactive phosphate derived from ^33P-ATP into a generic substrate which has been adsorbed onto the well surface of polystyrene microtiter plates. Phosphorylated substrate products are quantified by scintillation spectrometry.
# Inhibition is indicated as IC50 with following key: A=IC50 less than 50 nM, B=IC50 greater than 50 nM, but less than or equal to 1000 nM, C=IC50 greater than 1000 nM, but less than 10,000 nM, and D=IC50 10,000 nM or greater. The abbreviation for human enzyme, Tie-2, is defined as tyrosine kinase with immunoglobulin and EGF repeats.
# Chain of Tie-2 (Q02763 23-1124): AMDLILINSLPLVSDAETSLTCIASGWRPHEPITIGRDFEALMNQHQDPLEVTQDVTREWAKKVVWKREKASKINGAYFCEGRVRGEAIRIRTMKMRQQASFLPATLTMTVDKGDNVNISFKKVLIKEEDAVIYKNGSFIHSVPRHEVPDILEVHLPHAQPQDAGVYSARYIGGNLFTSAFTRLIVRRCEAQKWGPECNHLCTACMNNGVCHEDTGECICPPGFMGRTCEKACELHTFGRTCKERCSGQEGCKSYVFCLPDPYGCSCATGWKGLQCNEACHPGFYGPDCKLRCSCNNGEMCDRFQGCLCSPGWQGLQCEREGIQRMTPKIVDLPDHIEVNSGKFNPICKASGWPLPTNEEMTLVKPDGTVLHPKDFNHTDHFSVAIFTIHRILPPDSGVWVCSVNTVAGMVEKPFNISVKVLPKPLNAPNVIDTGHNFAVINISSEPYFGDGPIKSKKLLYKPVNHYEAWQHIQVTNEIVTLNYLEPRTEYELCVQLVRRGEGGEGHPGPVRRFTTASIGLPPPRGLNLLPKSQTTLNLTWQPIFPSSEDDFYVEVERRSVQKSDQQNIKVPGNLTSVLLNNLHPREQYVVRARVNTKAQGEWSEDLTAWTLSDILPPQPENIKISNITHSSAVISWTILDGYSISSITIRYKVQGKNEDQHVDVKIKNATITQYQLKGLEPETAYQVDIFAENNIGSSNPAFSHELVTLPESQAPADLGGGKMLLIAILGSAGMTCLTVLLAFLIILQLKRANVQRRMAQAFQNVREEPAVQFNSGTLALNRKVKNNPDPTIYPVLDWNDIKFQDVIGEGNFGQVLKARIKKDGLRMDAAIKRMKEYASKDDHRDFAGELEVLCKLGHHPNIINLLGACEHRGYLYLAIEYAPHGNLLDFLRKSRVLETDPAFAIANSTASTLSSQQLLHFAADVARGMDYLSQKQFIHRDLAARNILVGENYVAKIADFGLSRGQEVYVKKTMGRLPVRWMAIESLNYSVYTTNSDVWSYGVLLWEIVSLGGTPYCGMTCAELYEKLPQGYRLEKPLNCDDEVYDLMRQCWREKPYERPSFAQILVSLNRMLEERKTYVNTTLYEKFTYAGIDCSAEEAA
row,IC50,Compound
1,≥ 10 µM,"CC(C)[C@H](CO)Nc1nc(-c2ccncc2)nc2ccccc12 [Compound 53, (2R)-3-methyl-2-[(2-pyridin-4-ylquinazolin-4-yl)amino]butan-1-ol]"
2,≥ 10 µM,"COc1cc(OC)c(CNc2nc(-c3ccncc3)nc3ccccc23)c(OC)c1 [Compound 20, 2-pyridin-4-yl-N-{[2,4,6-tris(methyloxy)phenyl]methyl}quinazolin-4-amine]"
3,≥ 10 µM,"CCc1cc(-c2nc(N[C@@H]3c4ccccc4C[C@@H]3O)c3ccccc3n2)ccn1 [Compound 44, (1R,2S)-1-{[2-(2-ethylpyridin-4-yl)quinazolin-4-yl]amino}-2,3-dihydro-1H-inden-2-ol]"
4,≥ 10 µM,"C[C@H](CO)Nc1nc(-c2ccncc2)nc2ccccc12 [Compound 41, (2R)-2-[(2-pyridin-4-ylquinazolin-4-yl)amino]propan-1-ol]"
5,≥ 10 µM,"c1ccc2c(NN3CCCCC3)nc(-c3ccncc3)nc2c1 [Compound 67, N-piperidin-1-yl-2-pyridin-4-ylquinazolin-4-amine]"
6,≥ 10 µM,"O[C@H]1Cc2ccccc2[C@H]1Nc1nc(-c2ccncc2)nc2ccccc12 [Compound 17, (1R,2S)-1-[(2-pyridin-4-ylquinazolin-4-yl)amino]-2,3-dihydro-1H-inden-2-ol]"
7,0.05 to 1 µM,"O[C@@H]1Cc2ccccc2[C@@H]1Nc1nc(-c2ccncc2)nc2cc(C(F)(F)F)ccc12 [Compound 48, (1S,2R)-1-{[2-pyridin-4-yl-7-(trifluoromethyl)quinazolin-4-yl]amino}-2,3-dihydro-1H-inden-2-ol]"
8,1 to 10 µM,"CC(C)Oc1ccc(Nc2nc(-c3ccncc3)nc3ccccc23)cc1 [Compound 25, N-{4-[(1-methylethyl)oxy]phenyl}-2-pyridin-4-ylquinazolin-4-amine]"
9,0.05 to 1 µM,"O[C@@H]1Cc2ccccc2[C@@H]1Nc1ccnc(-c2ccncc2)n1 [Compound 57, (1S,2R)-1-[(2-pyridin-4-ylpyrimidin-4-yl)amino]-2,3-dihydro-1H-inden-2-ol]"
10,≥ 10 µM,"CC(C)(C)OC(=O)N1CCN(c2nc(-c3ccncc3)nc3ccccc23)CC1 [Compound 14, 1,1-dimethylethyl 4-(2-pyridin-4-ylquinazolin-4-yl)piperazine-1-carboxylate]"
11,≥ 10 µM,"c1ccc2c(NCCN3CCNCC3)nc(-c3ccncc3)nc2c1 [Compound 32, N-(2-piperazin-1-ylethyl)-2-pyridin-4-ylquinazolin-4-amine]"
12,0.05 to 1 µM,"COc1cc2nc(-c3ccncc3)nc(N[C@H]3c4ccccc4C[C@H]3O)c2cc1OC [Compound 46, (1S,2R)-1-{[6,7-bis(methyloxy)-2-pyridin-4-ylquinazolin-4-yl]amino}-2,3-dihydro-1H-inden-2-ol]"
13,≥ 10 µM,"CCc1cc(-c2nc(N[C@H]3c4ccccc4C[C@H]3O)c3ccccc3n2)ccn1 [Compound 43, (1S,2R)-1-{[2-(2-ethylpyridin-4-yl)quinazolin-4-yl]amino}-2,3-dihydro-1H-inden-2-ol]"
14,≥ 10 µM,"Oc1ccc(N2CCN(c3nc(-c4ccncc4)nc4ccccc34)CC2)cc1 [Compound 11, 4-[4-(2-pyridin-4-ylquinazolin-4-yl)piperazin-1-yl]phenol]"
15,≥ 10 µM,"c1ccc2c(NCCN3CCCC3)nc(-c3ccncc3)nc2c1 [Compound 2, 2-pyridin-4-yl-N-(2-pyrrolidin-1-ylethyl)quinazolin-4-amine]"
16,≥ 10 µM,"OCCNc1nc(-c2ccncc2)nc2ccccc12 [Compound 5, 2-[(2-pyridin-4-ylquinazolin-4-yl)amino]ethanol]"
17,1 to 10 µM,"O[C@@H]1Cc2ccccc2[C@@H]1Nc1nc(-c2cccnc2)nc2ccccc12 [Compound 33, (1S,2R)-1-[(2-pyridin-3-ylquinazolin-4-yl)amino]-2,3-dihydro-1H-inden-2-ol]"
18,≥ 10 µM,"OC[C@@H](Cc1ccccc1)Nc1nc(-c2ccncc2)nc2ccccc12 [Compound 60, (2R)-3-phenyl-2-[(2-pyridin-4-ylquinazolin-4-yl)amino]propan-1-ol]"
19,≥ 10 µM,"c1ccc2c(NC3CCNCC3)nc(-c3ccncc3)nc2c1 [Compound 21, N-piperidin-4-yl-2-pyridin-4-ylquinazolin-4-amine]"
20,0.05 to 1 µM,"c1ccc2c(c1)CC[C@@H](Nc1nc(-c3ccncc3)nc3ccccc13)C2 [Compound 12, 2-pyridin-4-yl-N-[(2R)-1,2,3,4-tetrahydronaphthalen-2-yl]quinazolin-4-amine]"
21,1 to 10 µM,"c1ccc2c(NCC3CCCCC3)nc(-c3ccncc3)nc2c1 [Compound 4, N-(cyclohexylmethyl)-2-pyridin-4-ylquinazolin-4-amine]"
22,1 to 10 µM,"c1ccc2c(NC3CCCCC3)nc(-c3ccncc3)nc2c1 [Compound 1, N-cyclohexyl-2-pyridin-4-ylquinazolin-4-amine]"
23,≥ 10 µM,"OC1CCCN(c2nc(-c3ccncc3)nc3ccccc23)C1 (stereo not drawn) [Compound 47, 1-(2-pyridin-4-ylquinazolin-4-yl)piperidin-3-ol]"

row,IC50,Compound
1,1 to 10 µM,"COc1ccc(-c2nc(N[C@H]3c4ccccc4C[C@H]3O)c3ccccc3n2)cn1 [Compound 49, (1S,2R)-1-({2-[6-(methyloxy)pyridin-3-yl]quinazolin-4-yl}amino)-2,3-dihydro-1H-inden-2-ol]"
2,≥ 10 µM,"OCCN1CCN(Nc2nc(-c3ccncc3)nc3ccccc23)CC1 [Compound 66, 2-{-4-[(2-pyridin-4-ylquinazolin-4-yl)amino]piperazin-1-yl}ethanol]"
3,0.05 to 1 µM,"Nc1nccc(-c2nc(N[C@H]3c4ccccc4C[C@H]3O)c3ccccc3n2)n1 [Compound 63, (1S,2R)-1-{[2-(2-aminopyrimidin-4-yl)quinazolin-4-yl]amino}-2,3-dihydro-1H-inden-2-ol]"
4,1 to 10 µM,"OC[C@H](Nc1nc(-c2ccncc2)nc2ccccc12)c1ccccc1 [Compound 56, (2R)-2-phenyl-2-[(2-pyridin-4-ylquinazolin-4-yl)amino]ethanol]"
5,1 to 10 µM,"Fc1ccc(CNc2nc(-c3ccncc3)nc3ccccc23)cc1 [Compound 7, N-[(4-fluorophenyl)methyl]-2-pyridin-4-ylquinazolin-4-amine]"
6,1 to 10 µM,"OCCN(Cc1ccccc1)c1nc(-c2ccncc2)nc2ccccc12 [Compound 62, 2-[(phenylmethyl)(2-pyridin-4-ylquinazolin-4-yl)amino]ethanol]"
7,≥ 10 µM,"c1ccc2c(N[C@H]3CCCNC3)nc(-c3ccncc3)nc2c1 [Compound 50, N-[(3S)-piperidin-3-yl]-2-pyridin-4-ylquinazolin-4-amine]"
8,< 0.05 µM,"Cc1ccc2c(N[C@H]3c4ccccc4C[C@H]3O)nc(-c3ccncc3)nc2c1 [Compound 51, (1S,2R)-1-[(7-methyl-2-pyridin-4-ylquinazolin-4-yl)amino]-2,3-dihydro-1H-inden-2-ol]"
9,1 to 10 µM,"CC(C)(C)OC(=O)N1CCC(Nc2nc(-c3ccncc3)nc3ccccc23)CC1 [Compound 19, 1,1-dimethylethyl 4-[(2-pyridin-4-ylquinazolin-4-yl)amino]piperidine-1-carboxylate]"
10,≥ 10 µM,"C[C@H](O)CNc1nc(-c2ccncc2)nc2ccccc12 [Compound 42, (2S)-1-[(2-pyridin-4-ylquinazolin-4-yl)amino]propan-2-ol]"
11,≥ 10 µM,"O[C@@H]1CCCC[C@H]1Nc1nc(-c2ccccc2)nc2ccccc12 [Compound 29, (1R,2R)-2-[(2-phenylquinazolin-4-yl)amino]cyclohexanol]"
12,≥ 10 µM,"O[C@@H]1CCC[C@H]1Nc1nc(-c2cccnc2)nc2ccccc12 [Compound 35, (1R,2R)-2-[(2-pyridin-3-ylquinazolin-4-yl)amino]cyclopentanol]"
13,≥ 10 µM,"Nc1ccncc1-c1nc(N[C@H]2c3ccccc3C[C@H]2O)c2ccccc2n1 [Compound 59, (1S,2R)-1-{[2-(4-aminopyridin-3-yl)quinazolin-4-yl]amino}-2,3-dihydro-1H-inden-2-ol]"
14,≥ 10 µM,"O[C@@H]1CCCC[C@H]1Nc1nc(-c2cccnc2)nc2ccccc12 [Compound 36, (1R,2R)-2-[(2-pyridin-3-ylquinazolin-4-yl)amino]cyclohexanol]"
15,< 0.05 µM,"O[C@@H]1Cc2ccccc2[C@@H]1Nc1nc(-c2ccncc2)nc2ccccc12 [Compound 18, (1S,2R)-1-[(2-pyridin-4-ylquinazolin-4-yl)amino]-2,3-dihydro-1H-inden-2-ol]"
16,≥ 10 µM,"c1ccc(CO[C@H]2CCC[C@@H]2Nc2nc(-c3ccncc3)nc3ccccc23)cc1 [Compound 22, N-{(1S,2S)-2-[(phenylmethyl)oxy]cyclopentyl}-2-pyridin-4-ylquinazolin-4-amine]"
17,0.05 to 1 µM,"c1ccc2c(c1)CCC2Nc1nc(-c2ccncc2)nc2ccccc12 (stereo not drawn) [Compound 9, N-(2,3-dihydro-1H-inden-1-yl)-2-pyridin-4-ylquinazolin-4-amine]"
18,1 to 10 µM,"CC(C)[C@@H](CO)Nc1nc(-c2ccncc2)nc2ccccc12 [Compound 54, (2S)-3-methyl-2-[(2-pyridin-4-ylquinazolin-4-yl)amino]butan-1-ol]"
19,≥ 10 µM,"O[C@H]1Cc2ccccc2[C@H]1Nc1nc(-c2cccnc2)nc2ccccc12 [Compound 34, (1R,2S)-1-[(2-pyridin-3-ylquinazolin-4-yl)amino]-2,3-dihydro-1H-inden-2-ol]"
20,≥ 10 µM,"CN(C)CCNc1nc(-c2ccncc2)nc2ccccc12 [Compound 8, N,N-dimethyl-N′-(2-pyridin-4-ylquinazolin-4-yl)ethane-1,2-diamine]"
21,≥ 10 µM,"O[C@@H]1Cc2ccccc2[C@@H]1Nc1nc(-c2cnccn2)nc2ccccc12 [Compound 58, (1S,2R)-1-[(2-pyrazin-2-ylquinazolin-4-yl)amino]-2,3-dihydro-1H-inden-2-ol]"
22,≥ 10 µM,"O[C@@H]1Cc2ccccc2[C@@H]1Nc1nc(-c2ccccn2)nc2ccccc12 [Compound 37, (1S,2R)-1-[(2-pyridin-2-ylquinazolin-4-yl)amino]-2,3-dihydro-1H-inden-2-ol]"
